Data: the NIST ThermoML archive (doi:10.1016/j.jct.2016.03.026)
“And” between values parts separate entries of the source, which are not always exact repeats. Identical values can stand only once. Numbers after ± are expanded uncertainties.

Assay: xn = mol fraction of the nth substance listed
Settings: Fluid (supercritical or subcritical phases); for speed of sound: Frequency=5 MHz, Pulse-echo method, x1 = 0.925; for mass density: 263.15 K, Vibrating tube method, x1 = 0.97

O=C=O [carbon dioxide] + CO
speed of sound
Settings | 263.13 K | 263.14 K
7970 kPa | 694.6 ± 1 m/s and 693.1 ± 1 m/s | 694.8 ± 1 m/s and 695.2 ± 1 m/s
9960 kPa | – | 715.4 ± 1 m/s
9990 kPa | 715.1 ± 1 m/s | –
10000 kPa | 714.3 ± 1 m/s | –
10020 kPa | – | 715.9 ± 1 m/s
14940 kPa | 760.5 ± 1.1 m/s | –
14950 kPa | – | 760.8 ± 1.1 m/s
14960 kPa | 759.3 ± 1.1 m/s | –
14990 kPa | – | 761 ± 1.1 m/s
19990 kPa | 799.6 ± 1.1 m/s | 801 ± 1.1 m/s
20000 kPa | 800.7 ± 1.1 m/s | –
20020 kPa | – | 800.7 ± 1.1 m/s
24970 kPa | 836 ± 1.1 m/s | 836.4 ± 1.1 m/s
24980 kPa | 835.1 ± 1.1 m/s | –
24990 kPa | – | 836.3 ± 1.1 m/s
29960 kPa | 867.4 ± 1.2 m/s | 868.8 ± 1.2 m/s
29990 kPa | 868.4 ± 1.2 m/s | –
30000 kPa | – | 868.9 ± 1.2 m/s
34950 kPa | – | 898.5 ± 1.2 m/s
34980 kPa | – | 898.5 ± 1.2 m/s
34990 kPa | 898.5 ± 1.2 m/s | –
35000 kPa | 897.7 ± 1.2 m/s | –
39950 kPa | 926.1 ± 1.2 m/s | –
39970 kPa | 925.5 ± 1.2 m/s | –
39990 kPa | – | 926.5 ± 1.2 m/s and 926.8 ± 1.2 m/s
44970 kPa | 952.1 ± 1.2 m/s | –
44980 kPa | 951.6 ± 1.2 m/s | –
45030 kPa | – | 952.7 ± 1.2 m/s
45040 kPa | – | 952.8 ± 1.2 m/s
49950 kPa | – | 977.1 ± 1.3 m/s
49960 kPa | – | 977.1 ± 1.3 m/s
49970 kPa | 977 ± 1.3 m/s and 976.2 ± 1.3 m/s | –
54950 kPa | 999.5 ± 1.3 m/s | –
54980 kPa | – | 1000.5 ± 1.3 m/s
54990 kPa | 1000.3 ± 1.3 m/s | –
55010 kPa | – | 1000.5 ± 1.3 m/s
59950 kPa | 1021.6 ± 1.3 m/s | 1022.5 ± 1.3 m/s
59970 kPa | – | 1022.9 ± 1.3 m/s
59990 kPa | 1022.6 ± 1.3 m/s | –
64970 kPa | – | 1043.9 ± 1.3 m/s and 1044.2 ± 1.4 m/s
64980 kPa | 1043.7 ± 1.3 m/s | –
65000 kPa | 1043 ± 1.3 m/s | –
69950 kPa | – | 1064.3 ± 1.4 m/s
69960 kPa | 1063.9 ± 1.4 m/s | –
69990 kPa | – | 1064.1 ± 1.4 m/s
70000 kPa | 1063.4 ± 1.4 m/s | –
74960 kPa | 1083.5 ± 1.4 m/s and 1082.7 ± 1.4 m/s | –
74970 kPa | – | 1083.7 ± 1.4 m/s
74990 kPa | – | 1084.1 ± 1.4 m/s
79980 kPa | 1101.6 ± 1.4 m/s | –
79990 kPa | – | 1102.8 ± 1.4 m/s
80000 kPa | 1102.6 ± 1.4 m/s | 1102.8 ± 1.4 m/s
89950 kPa | – | 1138.4 ± 1.5 m/s
89990 kPa | 1137.3 ± 1.5 m/s | –
90000 kPa | 1138.2 ± 1.5 m/s | –
90020 kPa | – | 1138.8 ± 1.5 m/s
99980 kPa | – | 1172.1 ± 1.5 m/s
99990 kPa | 1171.5 ± 1.5 m/s | –
100000 kPa | 1170.8 ± 1.5 m/s | 1171.8 ± 1.5 m/s
109970 kPa | 1202.4 ± 1.5 m/s | –
109980 kPa | 1203.2 ± 1.5 m/s | 1203.3 ± 1.5 m/s
110000 kPa | – | 1203.8 ± 1.5 m/s
119950 kPa | 1232.3 ± 1.6 m/s | –
119980 kPa | 1233.2 ± 1.6 m/s | 1233.5 ± 1.6 m/s
120000 kPa | – | 1233.4 ± 1.6 m/s
129980 kPa | 1261.7 ± 1.6 m/s | –
129990 kPa | 1260.9 ± 1.6 m/s | –
130000 kPa | – | 1262 ± 1.6 m/s
130010 kPa | – | 1262.1 ± 1.6 m/s
139970 kPa | 1288.8 ± 1.6 m/s | –
139980 kPa | 1288.1 ± 1.6 m/s | 1289.1 ± 1.6 m/s
140010 kPa | – | 1289.5 ± 1.6 m/s
149950 kPa | 1315 ± 1.7 m/s | 1315.1 ± 1.7 m/s
149970 kPa | 1314.1 ± 1.7 m/s | –
150000 kPa | – | 1315.4 ± 1.7 m/s
159950 kPa | – | 1340.4 ± 1.7 m/s
159960 kPa | – | 1340.2 ± 1.7 m/s
159970 kPa | 1340 ± 1.7 m/s | –
159980 kPa | 1339.2 ± 1.7 m/s | –
169960 kPa | – | 1364.5 ± 1.7 m/s
169980 kPa | – | 1364.2 ± 1.7 m/s
170010 kPa | 1364.1 ± 1.7 m/s | –
170040 kPa | 1363.4 ± 1.7 m/s | –
179970 kPa | – | 1388 ± 1.8 m/s
179990 kPa | – | 1387.5 ± 1.8 m/s
180000 kPa | 1386.5 ± 1.8 m/s | –
180020 kPa | 1387.5 ± 1.8 m/s | –
190000 kPa | 1409.9 ± 1.8 m/s | 1410.3 ± 1.8 m/s
190010 kPa | 1409 ± 1.8 m/s | –
190020 kPa | – | 1409.9 ± 1.8 m/s

Settings | mass density [kg/m3]
4000 kPa | 989.7 ± 0.8
4025 kPa | 990.23 ± 0.8
4050 kPa | 990.17 ± 0.8
4075 kPa | 990.12 ± 0.8
4100 kPa | 990.09 ± 0.8
4125 kPa | 990.27 ± 0.8
4150 kPa | 990.42 ± 0.8
4175 kPa | 990.57 ± 0.8
4200 kPa | 990.66 ± 0.8
4225 kPa | 990.83 ± 0.8
4250 kPa | 990.91 ± 0.8
4275 kPa | 991.06 ± 0.8
4300 kPa | 991.18 ± 0.8
4325 kPa | 991.32 ± 0.8
4350 kPa | 991.48 ± 0.8
4375 kPa | 991.65 ± 0.8
4400 kPa | 991.73 ± 0.8
4425 kPa | 991.89 ± 0.8
4450 kPa | 992.03 ± 0.8
4475 kPa | 992.14 ± 0.8
4500 kPa | 992.26 ± 0.8
4525 kPa | 992.39 ± 0.8
4550 kPa | 992.55 ± 0.8
4575 kPa | 992.63 ± 0.8
4600 kPa | 992.8 ± 0.8
4625 kPa | 992.88 ± 0.8
4650 kPa | 993.04 ± 0.8
4675 kPa | 993.21 ± 0.8
4700 kPa | 993.29 ± 0.8
4725 kPa | 993.45 ± 0.8
4750 kPa | 993.53 ± 0.8
4775 kPa | 993.7 ± 0.8
4800 kPa | 993.78 ± 0.8
4825 kPa | 993.94 ± 0.8
4850 kPa | 994.11 ± 0.8
4875 kPa | 994.19 ± 0.8
4900 kPa | 994.35 ± 0.8
4925 kPa | 994.43 ± 0.8
4950 kPa | 994.6 ± 0.8
4975 kPa | 994.76 ± 0.8
5000 kPa | 994.84 ± 0.8
5025 kPa | 995.01 ± 0.8
5050 kPa | 995.09 ± 0.8
5075 kPa | 995.25 ± 0.8
5100 kPa | 995.34 ± 0.8
5125 kPa | 995.5 ± 0.8
5150 kPa | 995.58 ± 0.8
5175 kPa | 995.74 ± 0.8
5200 kPa | 995.91 ± 0.8
5225 kPa | 995.99 ± 0.8
5250 kPa | 996.15 ± 0.8
5275 kPa | 996.24 ± 0.8
5300 kPa | 996.4 ± 0.8
5325 kPa | 996.48 ± 0.8
5350 kPa | 996.65 ± 0.8
5375 kPa | 996.73 ± 0.8
5400 kPa | 996.89 ± 0.8
5425 kPa | 996.97 ± 0.8
5450 kPa | 997.14 ± 0.8
5475 kPa | 997.22 ± 0.8
5500 kPa | 997.38 ± 0.8
5525 kPa | 997.46 ± 0.8
5550 kPa | 997.63 ± 0.8
5575 kPa | 997.71 ± 0.8
5600 kPa | 997.87 ± 0.8
5625 kPa | 997.96 ± 0.8
5650 kPa | 998.12 ± 0.8
5675 kPa | 998.2 ± 0.8
5700 kPa | 998.37 ± 0.8
5725 kPa | 998.52 ± 0.8
5750 kPa | 998.61 ± 0.8
5775 kPa | 998.69 ± 0.8
5800 kPa | 998.86 ± 0.8
5825 kPa | 998.94 ± 0.8
5850 kPa | 999.1 ± 0.8
5875 kPa | 999.18 ± 0.8
5900 kPa | 999.35 ± 0.8
5925 kPa | 999.43 ± 0.8
5950 kPa | 999.59 ± 0.8
5975 kPa | 999.68 ± 0.8
6000 kPa | 999.84 ± 0.8
6025 kPa | 999.92 ± 0.8
6050 kPa | 1000.09 ± 0.8
6075 kPa | 1000.17 ± 0.8
6100 kPa | 1000.33 ± 0.8
6125 kPa | 1000.41 ± 0.8
6150 kPa | 1000.58 ± 0.8
6175 kPa | 1000.66 ± 0.8
6200 kPa | 1000.79 ± 0.8
6225 kPa | 1000.9 ± 0.8
6250 kPa | 1000.98 ± 0.8
6275 kPa | 1001.15 ± 0.8
6300 kPa | 1001.23 ± 0.8
6325 kPa | 1001.39 ± 0.8
6350 kPa | 1001.48 ± 0.8
6375 kPa | 1001.64 ± 0.8
6400 kPa | 1001.72 ± 0.8
6425 kPa | 1001.82 ± 0.8
6450 kPa | 1001.97 ± 0.8
6475 kPa | 1002.05 ± 0.8
6500 kPa | 1002.21 ± 0.8
6525 kPa | 1002.29 ± 0.8
6550 kPa | 1002.46 ± 0.8
6575 kPa | 1002.54 ± 0.8
6600 kPa | 1002.7 ± 0.8
6625 kPa | 1002.79 ± 0.8
6650 kPa | 1002.95 ± 0.8
6675 kPa | 1003.03 ± 0.8
6700 kPa | 1003.2 ± 0.8
6725 kPa | 1003.28 ± 0.8
6750 kPa | 1003.36 ± 0.8
6775 kPa | 1003.52 ± 0.8
6800 kPa | 1003.6 ± 0.8
6825 kPa | 1003.77 ± 0.8
6850 kPa | 1003.85 ± 0.8
6875 kPa | 1004.01 ± 0.8
6900 kPa | 1004.09 ± 0.8
6925 kPa | 1004.25 ± 0.8
6950 kPa | 1004.34 ± 0.8
6975 kPa | 1004.42 ± 0.8
7000 kPa | 1004.59 ± 0.8
7025 kPa | 1004.67 ± 0.8
7050 kPa | 1004.82 ± 0.8
7075 kPa | 1004.91 ± 0.8
7100 kPa | 1004.99 ± 0.8
7125 kPa | 1005.16 ± 0.8
7150 kPa | 1005.24 ± 0.8
7175 kPa | 1005.38 ± 0.8
7200 kPa | 1005.49 ± 0.8
7225 kPa | 1005.57 ± 0.8
7250 kPa | 1005.73 ± 0.8
7275 kPa | 1005.81 ± 0.8
7300 kPa | 1005.9 ± 0.8
7325 kPa | 1006.06 ± 0.8
7350 kPa | 1006.14 ± 0.8
7375 kPa | 1006.29 ± 0.8
7400 kPa | 1006.39 ± 0.8
7425 kPa | 1006.47 ± 0.8
7450 kPa | 1006.63 ± 0.8
7475 kPa | 1006.71 ± 0.8
7500 kPa | 1006.79 ± 0.8
